In the OPERA property sets (Mansouri et al. 2018):

**Q.** With `COc1ccccc1N1CCN(CC2CN=C(N)O2)CC1` (stereo not given) as the molecule, how does the logP read?
**A.** 0.76

**Q.** For `Cc1cccc(N2CCN(CC3CN=C(N)O3)CC2)c1C` (stereo not given), which logP is on record?
**A.** 2.19

**Q.** With `NC1=NCC(CN2CCN(c3cccc(Cl)c3)CC2)O1` (stereo not given) as the molecule, how does the logP read?
**A.** 1.83

**Q.** With `NC1=NCC(CN2CCN(c3ccccn3)CC2)O1` (stereo not given) as the molecule, how does the logP read?
**A.** 0.48

**Q.** Which logP does the source give for `NC1=NCC(CN2CCN(c3ccccc3Cl)CC2)O1` (stereo not given) here?
**A.** 1.87

**Q.** With `COc1cccc(N2CCN(CC3CN=C(N)O3)CC2)c1` (stereo not given) as the molecule, how does the logP read?
**A.** 0.87

**Q.** With `NC1=NCC(CN2CCN(c3cccc(C(F)(F)F)c3)CC2)O1` (stereo not given) as the molecule, how does the logP read?
**A.** 2.21

**Q.** Which logP does the source give for `COc1ccc(N2CCN(CC3CN=C(N)O3)CC2)cc1` (stereo not given) here?
**A.** 0.68

**Q.** For `Cc1ccc(N2CCN(CC3CN=C(N)O3)CC2)cc1` (stereo not given), which logP is on record?
**A.** 1.23

**Q.** Which logP does the source give for `NC1=NCC(CN2CCN(c3ccc(F)cc3)CC2)O1` (stereo not given) here?
**A.** 1

**Q.** With `NC1=NCC(CN2CCN(c3ccc(Cl)cc3)CC2)O1` (stereo not given) as the molecule, how does the logP read?
**A.** 1.71

**Q.** Which logP does the source give for `CCOc1ccccc1N1CCN(CC2CN=C(N)O2)CC1` (stereo not given) here?
**A.** 1.21

**Q.** With `NC1=NCC(CN2CCN(c3ncccn3)CC2)O1` (stereo not given) as the molecule, how does the logP read?
**A.** 0.21

**Q.** With `NC1=NCC(CN2CCN(c3ccc(Cl)c(Cl)c3)CC2)O1` (stereo not given) as the molecule, how does the logP read?
**A.** 2.4

**Q.** With `NC1=NCC(CN2CCN(c3ccccc3)CC2)O1` (stereo not given) as the molecule, how does the logP read?
**A.** 0.85
